Data set [1] can be described thus: Oral bioavailability in fasted male rats (intravenous and oral dosing). It is filed as in vivo. The conditions noted are these: for bioavailability / AUC(0-inf): rat, plasma; for bioavailability: from dose-normalized AUC.infin. oral vs intravenous; for AUC(0-inf): fasted male rats (n=3), read-out: area under the curve AUC.infin. On the procedure: Fasted male rats (n=3) were given a single dose of the title compound either intravenously (10 μmol/kg as a 10 minute infusion) or orally by gavage (20 μmol/kg). The dosing vehicle was propylene glycol for the intravenous dose and PEG-400 for the oral dose. Following dosing, the average plasma concentration of the title compound was measured over time, and the area under the curve AUC.infin.

The subject of data set [2] is big ET-1 pressor response. Description: Pressor testing (ii): inhibition of big ET-1 pressor response over time after oral dosing. It is filed as in vivo, Sprague-Dawley rats. To be noted: 3 μmol/kg, human big ET-1 1 nmol/kg i.v., n=3. The source says: Peak pressor responses were compared to determine the amount of inhibition caused by the title compound at these time intervals.

Data set [3] deals with big ET-1 pressor response. Description: Pressor testing (i): inhibition of big ET-1 pressor response after intravenous dosing. It is filed as in vivo. The conditions noted are these: Rattus norvegicus, 5 min, read-out: dose causing 50% inhibition of the big ET-1 pressor response (ED50), human big ET-1 1 nmol/kg i.v. before and 5 minutes after compound, conscious normotensive Sprague-Dawley rats. The protocol:
(i) Intravenous injection of big ET-1 into conscious, normotensive rats produces a transient increase in mean arterial pressure which can be blunted by an ETA receptor antagonist.
A bolus injection of human big ET-1 (1 nmol/kg, intravenously; vehicle: 1% Tween 80 in 5% NaHCO3) was administered to Sprague-Dawley rats before and 5 minutes after intravenous injection of an amount of the title compound (0.01 μmol/kg (n=10), 0.03 μmol/kg (n=10), and 0.1 μmol/kg (n=3)). Peak pressor responses were compared to determine the amount of inhibition caused by the title compound.

Data set [4] in a line: Pre-systemic metabolic stability within the gastrointestinal tract, in vivo (bile duct cannulated rats). The conditions noted are these: rat, po, 29 mg/kg. The protocol:
Bile duct cannulated rats were fasted overnight. The title compound was administered as a solution in 5% sodium bicarbonate (ca. 8 mg/ml, 29 mg/kg) by oral gavage. Gastrointestinal tract homogenate was made in 3 volumes of water and an equal volume of acetonitrile was added.

The nature of another data set: in vitro. To be noted: rat, cecal contents, pH 7.4.

A word on the bioavailability: it is the share of a dose that reaches the circulation, judged against a reference dose that is usually intravenous. In general, amount remaining refers to what is left of the initial amount, in per cent. Higher therefore signals greater stability.

Read-outs that look alike come from different tables or passages of the source.

Experimental for in vitro: Rat cecal contents were quickly placed in cold, degassed potassium phosphate buffer (50 mM, pH 7.4, purged by nitrogen bubbling for at least 30 minutes). Each incubation contained ca. 0.1 g of cecal contents/ml. […] Samples were analyzed with HPLC-UV and LC-MS on a YMC-ODS AQ column (4.6×150 mm, 3μ) eluted with an ammonium acetate/acetonitrile gradient and detected at 270 nm.

`Cc1onc(NS(=O)(=O)c2ccccc2-c2ccc(-c3ncco3)cc2CN2CCC(C)(C)C2=O)c1C` [N-(4,5-dimethyl-3-isoxazolyl)-2'-[(3,3-dimethyl-2-oxo-1-pyrrolidinyl)methyl]-4'-(2-oxazolyl)[1,1'-biphenyl]-2-sulfonamide]: the bioavailability in data set [1] (20 umol/kg, fasted male rats) is roughly 78%.

Consider `Cc1onc(NS(=O)(=O)c2ccccc2-c2ccc(-c3ncco3)cc2CN(C)C(=O)CC(C)(C)C)c1C` [N-[[2'-[[(4,5-dimethyl-3-isoxazolyl)amino]sulfonyl]-4-(2-oxazolyl)[1,1'-biphenyl]-2-yl]methyl]-N,3,3-trimethylbutanamide], for which the “% Inhibition (big ET-1 pressor response)” value was found to be 57 ± 7% in data set [2] (15 minutes after dosing), 65 ± 13% in data set [2] (105 minutes after dosing) and 74 ± 8% in data set [2] (195 minutes after dosing). The “dose-normalized AUC.infin. values, intravenous versus oral” value in data set [1] (fasted male rats, 10 μmol/kg intravenous vs 20 μmol/kg oral) is “not statistically different”. For the same compound, the AUC(0-inf) in data set [1] (10 umol/kg, intravenous, 10 μmol/kg as a 10 minute infusion, propylene glycol vehicle) is 31.3 ± 2.9 µM·h; in data set [1] (20 umol/kg, oral gavage, 20 μmol/kg, PEG-400 vehicle), 72.8 ± 17.3 µM·h. This compound displayed a bioavailability in data set [1] (20 umol/kg, fasted male rats) of roughly 100%. Besides, in data set [3], the ED50 was found to be 0.03 µmol/kg. In data set [4], the “metabolites in the gastrointestinal tract” value is “metabolites were not observed”. For the same compound, in data set [4], the share remaining at 9 h is 100%. The same compound returned an amount remaining at 1 h, 200 µM in the data set “in vitro” of 100%.
